Reference: publication PMC11618052, “Design, synthesis, and antiproliferative activity of new 1,2,3-triazole/quinazoline-4-one hybrids as dual EGFR/BRAF^V600E inhibitors” (RSC Advances, 2024)
Several values for one entry are separate records, joined by “and”; a condition that tells them apart may be missing. Identical values can stand only once.

How the values were obtained:
[1] = tested on: Caspase-8; test: Caspase-8 level assay in MCF-7; assay type: cell-based, human; conditions: for Caspase-8 Fold change: MCF-7, versus untreated control; for Caspase-8 Conc.: MCF-7 cancer cell line
Protocol: (§1) Compounds 8g and 8h were evaluated as caspase-3, 8 and Bax activators and as down-regulator of the anti-apoptotic protein Bcl2 against the MCF-7 breast cancer cell line.[40] Appendix A ^† contains more details.
Compound 8g had the most overexpression of caspase-8 (2.60 ng mL^−1), followed by compound 8h (2.10 ng mL^−1) and staurosporine as a control (1.80 ng mL^−1). […]
monitored, and the substrate reaction stopped before the O.D. of the positive wells exceeds the limits of the instrument. The O.D. values at 450 nm can only be read after the Stop Solution has been added to each well. If using a reader that records only to 2.0 O.D., stopping the assay after […]
(§2) Add 100 μl of Stop Solution to each well. Tap side of plate gently to mix. The solution in the wells should change from blue to yellow. Read the absorbance of each well at 450 nm having blanked the plate reader against a chromogen blank composed of 100 μl each of Stabilized Chromogen and Stop Solution. Read the plate within 2 hours after adding the Stop Solution. Use a curve fitting software to generate the standard curve. A four-parameter algorithm provides the best standard curve fit. Read the concentrations for unknown samples and controls from the standard curve. Multiply value(s) obtained for sample(s) by the appropriate dilution factor to correct for the dilution in step 3. Samples producing signals greater than that of the highest standard should be diluted in Standard Diluent Buffer and reanalyzed.
4.2.1.6. Caspase-8 activation assay
Cells were obtained from American Type Culture Collection, cells were grown in RPMI 1640 containing 10% fetal bovine serum at 37°C, stimulated with the compounds to be tested for caspase8, and lysed with Cell Extraction Buffer. This lysate was diluted in Standard Diluent Buffer over the range of the assay and measured for human active caspase-8 content. (Cells are Plated in a density of 1.2 – 1.8 × 10,000 cells/well in a volume of 100µl complete growth medium + 100 ul of the tested compound per well in a 96-well plate for 24 hours before the enzyme assay for Tubulin.). The absorbance of each microwell was read on a spectro-photometer at 450 nm. A standard curve is prepared from 7human Caspase-8 standard dilutions and human Caspase-8 concentration determined.
(§3) 4.2.1.7. Bax activation assay

[2] = tested on: Caspase-3; test: Caspase-3 activation assay in MCF-7; assay type: cell-based, human; conditions: for Caspase-3 Fold change: MCF-7, versus untreated control; for Caspase-3 Conc.: MCF-7 cancer cell line
Protocol: as §1
Compounds 8g and 8h were evaluated as caspase-3 activators against the MCF-7 breast cancer cell line,[40] with results presented in Table 3. […] The compounds 8g and 8h increased the concentration of caspase-3 protein in the MCF-7 cancer cell line, showing levels that were 11 and 10 times higher than the untreated control and higher than staurosporine. […]
cancer cells, commercially available ELISA kits (Invitrogen) were used according to manufacturer’s instructions.
4.2.1.5. Caspase-3 activation assay
Allow all reagents to reach room temperature before use. Gently mix all liquid reagents prior to use. Determine the number of 8-well strips needed for the assay. Insert these in the frame(s) for current use. Add 100 μl of the Standard Diluent Buffer to the zero standard wells. Well(s) reserved for chromogen blank should be left empty. Add 100 μl of standards and controls or diluted samples to the appropriate microtiter wells. The sample dilution chosen should be optimized for each experimental system. Tap gently on side of plate to mix. Cover wells with plate cover and incubate for 2 hours at room temperature. Thoroughly aspirate or decant solution from wells and discard the liquid, Wash wells 4 times. Pipette 100 μl of Caspase-3 (Active) Detection Antibody solution into each well except the chromogen blank(s). Tap gently on the side of the plate to mix. Cover plate with plate cover and incubate for 1 hour at room temperature. Thoroughly aspirate or decant solution from wells and discard the liquid, Wash wells 4 times. Add 100 μl Anti-Rabbit IgG HRP Working Solution to each well except the chromogen blank(s). Prepare the working dilution as described in Preparing IgG HRP. Cover wells with the plate cover and incubate for 30 minutes at room temperature. Thoroughly aspirate or decant solution from wells and discard the liquid. Wash wells 4 times. Add 100 μl of Stabilized Chromogen to each well. The liquid in the wells will begin to turn blue. Incubate for 30 minutes at room temperature and in the dark. The incubation time for chromogen substrate is often determined by the microtiter plate reader used. Many plate readers have the capacity to record a maximum optical density (O.D.) of 2.0. The O.D. values should be monitored, and the substrate reaction stopped before the O.D. of the positive wells exceeds the limits of the instrument. The O.D. values at 450 nm can only be read after the Stop Solution has been added to each well. If using a reader that records only to 2.0 O.D., stopping the assay after […]
as §2, with “reanalyzed. […]” for “reanalyzed.”
Tubulin.). The absorbance of each microwell was read on a spectro-photometer at 450 nm. A standard curve is prepared from 7human Caspase-8 standard dilutions and human Caspase-8 concentration determined.
as §3

[3] = tested on: lung cancer (A-549); test: Antiproliferative MTT assay, A-549; assay type: cell-based; conditions: Homo sapiens, A549, A-549 lung cancer cells, read-out: Antiproliferative activity IC50 ± SEM, A-549
Protocol: The median inhibitory concentration (IC50) and GI50 (mean IC50) for the four cancer cell lines were calculated. Appendix A ^† contains more details. […]

| Compound | Caspase-8 Fold change [1] | Caspase-8 Conc. [1] | Caspase-8 Conc. ([1]; listed as staurosporine) [ng/mL] | Caspase-3 Fold change [2] | Caspase-3 Conc. [2] [pg/mL] | IC50 [3] [nM] |
| --- | --- | --- | --- | --- | --- | --- |
| CN[C@@H]1C[C@H]2O[C@@](C)([C@@H]1OC)n1c3ccccc3c3c4c(c5c6ccccc6n2c5c31)C(=O)NC4 [Staurosporine, reference compound] | 20 | 1.80 ± 0.10 ng/mL | 1.80 | 8 | 503 ± 4 |  |
| Cc1ccc(-n2cc(CSc3nc4ccccc4c(=O)n3-c3ccc(C)cc3)nn2)cc1 [Compound 8h, 2-(((1-(p-Tolyl)-1H-1,2,3-triazol-4-yl)methyl)thio)-3-(p-tolyl)quinazolin-4(3H)-one] | 23 | 2.10 ng/mL and 2.10 ± 0.20 ng/mL |  | 10 | 650 ± 5 | 25 ± 1 |
| COc1ccc(-n2cc(CSc3nc4ccccc4c(=O)n3-c3ccc(C)cc3)nn2)cc1 [Compound 8g, 2-(((1-(4-Methoxyphenyl)-1H-1,2,3-triazol-4-yl)methyl)thio)-3-(p-tolyl)quinazolin-4(3H)-one] | 28 | 2.60 ng/mL and 2.60 ± 0.20 ng/mL |  | 11 | 695 ± 5 | 22 ± 1 |
